Test results: patent US20250127698A1, “Hair Perming Compositions With Amine Derivatives” (ELC Management LLC, priority 2023, published 2025)

How the values were obtained:
[1] = DSC keratin denaturation temperature change after curling treatment; parameters: species or system human; settings: for ΔT (TUntreated−TAlkalizer, keratin denaturation temperature): Type 1 Chinese hair after curling treatment, larger ΔT indicates more damage; for damage to hair (in words): hair curling treatment, Type 1 Chinese hair
From the text: (§1) This damage occurs at the level of keratin proteins.
(§2) Untreated hair was used as a control.
(§3) A larger ΔT indicates more damage.

[2] = DSC keratin denaturation temperature change after straightening treatment; parameters: species or system human; settings: for ΔT (TUntreated−TAlkalizer, keratin denaturation temperature): Type 3 Caucasian hair after straightening, larger ΔT indicates more damage; for damage to hair (in words): hair straightening treatment, Type 3 Caucasian hair
From the text: as §1, §2, §3

[3] = DSC keratin denaturation temperature change after curling treatment; settings: for ΔT (TUntreated−TAlkalizer, keratin denaturation temperature): Type 1 Caucasian hair after curling treatment, larger ΔT indicates more damage
Procedure: It is known that the denaturation of keratin in hair can be detected by differential scanning calorimetry (DSC). DSC is a thermal analysis technique used to measure phase transition temperatures and heat of transformation (enthalpy) for endothermic and exothermic reactions.
For all of the test samples discussed above, DSC measurements were performed using the Discovery DSC 2500 (from TA Instruments. New Castle, DE). The experiments were carried out over a temperature range of 40° C. to 200° C., with a scan rate of 5° C./min under nitrogen protection. DSC samples were prepared by cutting tress samples into pieces (0.1 to 1.0 mm in size) and weighing. The hair samples were mixed with deionized water, and then sealed in high volume pans for at least 6 hours before measuring. The phase transition temperature (keratin denaturation temperature) of each hair sample was analyzed using TRIOS software (Discovery DSC 2500). Untreated hair was used as a control.
Each hair sample was analyzed at least twice, and the average temperature was obtained for data analysis. This was subtracted from the denaturation temperature of the control sample (ΔT=TUntreated−TAlkalizer). A larger ΔT indicates more damage.

[4] = active component of alkalizer; cited from earlier work
[5] = pH of hair perming composition; type: physicochemical; settings: for pH: hair perming composition: base of Table 2 (7.50% thioglycolic acid) plus alkalizer, same molar percentage of alkalizer
From the text: For testing, we prepared the hair perming compositions shown by Tables 2 and 3, below. […] All compositions contain the same molar percentage of alkalizer, the water content being adjusted accordingly.

[6] = Curl efficiency after hair curling treatment; parameters: species or system human; % Change In Curl Efficiency From 1 to 8 Washes: concentration or dose not given beside the values; settings: for curl after the equivalent of 8 washes (in words) / curl lost after the equivalent of 8 washes, as percentage of initial curl (in words): Chinese hair; for % Change In Curl Efficiency From 1 to 8 Washes / imparting curl (in words) / Curl Efficiency (%) After Treatment, 1 Wash and Dry / Curl Efficiency (%) After Treatment, 8 Washes and Dry: Type 1 Chinese hair; for Curl Efficiency (%) After Treatment, 1 Wash and Dry: 1 wash with 5% SDS solution; for Curl Efficiency (%) After Treatment, 8 Washes and Dry: equivalent of 8 washes with 5% SDS solution
From the text: (§4) The ability of each test composition to curl hair was established by measuring “curl efficiency”. Curl efficiency is a measure of curl tightness following a hair curling treatment. The higher the efficiency, the tighter the curl. We used a well-known method of measuring curl efficiency, wherein a portion of untreated straight hair of known length, Lu, is secured on an arrangement of pegs to form a sine wave pattern of five cycles, crest-to-crest. Because the pegs are fixed, the ideal length, Li, of the portion of hair when arranged into the five-cycle wave pattern, is known. Starting with a straight swatch of hair of length Lu, the ideal outcome would be a curled swatch of hair with a length of Li. Curl efficiency is a measure of how closely the ideal is attained.
(§5) Two types of hair samples were tested for curling; mixed sourced virgin Type 1Caucasian hair, and single sourced virgin Type 1 hair. For straightening, mixed sourced virgin Type 2C (very wavy) Caucasian hair was tested. Hair straightening test samples were prepared by collecting hair fibers into tresses, and clamping each tress at both ends. For those test samples that were to undergo a straightening treatment, the length, Lu, was measured between two previously determined points.
(§6) Each hair tress was wetted (reverse osmosis water). For curling, each hair tress was wound along a peg board to form a sine wave pattern of five cycles, as described above. For straightening, each hair tress was held on a board in a straight conformation, tension was applied, and the ends of the tress were secured. All test samples (curling or straightening) were allowed to dry before proceeding. Each board with a hair tress test sample was dipped for 10 seconds into a beaker with one of the hair perming compositions. After removing a board from solution, it was immediately placed in an oven for 20 minutes at 37° C. (normal body temperature). The test sample was removed from the oven, and rinsed for five minutes with 37° C. water, being careful not to allow the running water to fall directly on the hair tresses. After blotting with a paper towel, test samples were allowed to rest for five minutes at room temperature, for air oxidation to occur. The hair straightening test samples were removed from the board, blow dried and flat ironed at 200° C., which is commonly done in salon practice. At this point, the ideal length, Li, was measured between the two previously determined point mentioned above. Thereafter, each sample was rebound to the board.
(§7) Each bound hair tress was submerged for ten seconds in a 2% solution of H2O2 to neutralize the reducing agent and promote S-S bond formation, so that the hair tress would retain a desired shape (sine wave pattern or straight) when removed from the board. Each hair tress rested at room temperature for about five minutes, then was rinsed under 37° C. running water for five minutes, and subsequently blotted with a paper towel. Each test sample hair tress was removed from the board, laid on a flat surface, and allowed to dry. The fully permed dry tresses were washed in 5% SDS (sodium dodecyl sulfate) solution (which simulates salon practice) and allowed to dry overnight.
(§8) For the curling test samples, the length, Lt, of five waves, crest to crest was measured. For the straightening test samples, the final length, Lt, was measured between the two previously determined points. At this point, differential scanning calorimetry (DSC) measurements were made on a portion of each hair tress test sample. Also, for longevity performance, each tress was subjected to the equivalent of eight hand washings in 5% SDS solution using the GyroWash color fastness to laundering tester, and allowed to dry, before another length measurement, Lt, was made.
(§9) Curl efficiencies were computed using Equation 1.
(§10) [formula] • Lu=length of the untreated hair tress • Lt=crest-to-crest length of the five-wave portion of the treated hair tress • Li=ideal length of curled hair […]

[7] = Curl efficiency after hair curling treatment; parameters: species or system human; settings: for curl after the equivalent of 8 washes (in words) / curl lost after the equivalent of 8 washes, as percentage of initial curl (in words): Caucasian hair; for % Change In Curl Efficiency From 1 to 8 Washes / imparting curl (in words) / Curl Efficiency (%) After Treatment, 1 Wash and Dry / Curl Efficiency (%) After Treatment, 8 Washes and Dry: Type 1 Caucasian hair; for Curl Efficiency (%) After Treatment, 1 Wash and Dry: 1 wash with 5% SDS solution; for Curl Efficiency (%) After Treatment, 8 Washes and Dry: equivalent of 8 washes with 5% SDS solution
From the text: as §4, §5, §6, §7, §8, §9, §10

[8] = Straightening efficiency after hair straightening treatment; parameters: species or system human; settings: Type 2C Caucasian hair; 1 wash with 5% SDS solution
From the text: The ability of each test composition to straighten curly hair was established by measuring “straightening efficiency”. Straightening efficiency represents the degree to which curly hair is made straight by a hair straightening treatment. We start with a curly, untreated hair tress of length Lu. The tress has an ideal straight length of Li, which is the length of the untreated tress when flat ironed to its maximum, straight length. After treatment the tress has a length of Lt. Straightening efficiency is the gain in length as a percentage of the maximum possible gain in length. […] A straightening efficiency of 100% means that the treated tress retained the maximum possible length.
as §5, §6, §7, §8
Straightening efficiencies were computed using Equation 2.
[formula] • Lu=length of the untreated hair tress • Lt=length of treated hair tress • Li=ideal length of straightened hair
(Li−Lu) represents the maximum possible increase in length as a result of treatment. […]

Molecule | ΔT (TUntreated−TAlkalizer, keratin denaturation temperature) [1] [C. °] | ΔT (TUntreated−TAlkalizer, keratin denaturation temperature) [2] [°C] | ΔT (TUntreated−TAlkalizer, keratin denaturation temperature) [3] [°C] | pKa [4] | pH of alkalizer composition ([5]; Table 7) | pH of alkalizer composition ([5]; Table 8) | pH of alkalizer composition ([5]; Table 9) | pH [5] | damage to hair (in words) [1] | curl after the equivalent of 8 washes (in words) [6] | curl lost after the equivalent of 8 washes, as percentage of initial curl (in words) [6] | % Change In Curl Efficiency From 1 to 8 Washes [6] [%] | imparting curl (in words) [6] | Curl Efficiency (%) After Treatment, 1 Wash and Dry [6] [%] | Curl Efficiency (%) After Treatment, 8 Washes and Dry [6] [%] | curl after the equivalent of 8 washes (in words) [7] | % Change In Curl Efficiency From 1 to 8 Washes [7] [%] | Curl Efficiency (%) After Treatment, 1 Wash and Dry [7] [%] | Curl Efficiency (%) After Treatment, 8 Washes and Dry [7] [%] | Straightening Efficiency (%) After Treatment, 1 Wash and Dry [8] [%] | other results
CC(C)(N)CO [AMP, Aminomethyl propanol, reference compound] | 1.65 | 2.60 | 3.11 | 9.82 |  |  |  |  |  |  |  |  |  |  |  |  |  |  |  |  | 
NCC(O)CO (stereo not shown) [Isoserinol, 3-Amino-1,2-propanediol] | 2.51 | 2.17 | 3.07 |  | 9.18 | 9.18 | 9.18 | 9.18 | did not perform as well as the other alkalizers | ranked second for curl | comparable to or better than the standards | −10.93 | next best at imparting curl | 59.81 | 53.27 | ranked second for curl | −7.69 | 48.60 | 44.86 | 97.30 | curl lost after the equivalent of 8 washes, as percentage of initial curl (in words) [7]: comparable to or better than the standards; imparting curl (in words) [7]: next best at imparting curl
[Na+].[OH-] [NaOH, reference compound] | 5.60 | 4.60 | 6.34 |  | 10.56 | 10.56 | 10.56 | 10.56 |  |  |  | −19.92 |  | 54.86 | 43.93 |  | −17.64 | 47.66 | 39.25 | 65.71 | 
NC(CO)CO [Serinol, 2-Amino-1,3-propanediol] | 0.62 | 0.50 | 1.76 |  | 8.68 | 8.68 | 8.68 | 8.68 | less damage than ammonium hydroxide |  |  | −14.82 |  | 50.47 | 42.99 |  | −8.15 | 45.79 | 42.06 | 88.24 | damage to hair (in words) [2]: less damage than ammonium hydroxide; damage to hair (in words) ([3]; hair curling treatment, Type 1 Caucasian hair): less damage than ammonium hydroxide
DL-2-amino-1-propanol [DL-2-AP] | 3.49 | 3.20 | 3.95 | 9.6 | 9.45 | 9.45 | 9.45 | 9.45 | did not perform as well as the other alkalizers | still had the most curl | lost the most curl of the tested samples | −21.01 | best at imparting curl | 69.81 | 55.14 | still had the most curl | −11.11 | 50.47 | 44.86 | 95.35 | damage to hair (in words) [2]: more damage than ammonium hydroxide, MEA or AMP; curl lost after the equivalent of 8 washes, as percentage of initial curl (in words) [7]: lost the most curl of the tested samples; imparting curl (in words) [7]: best at imparting curl
